Values belong to the compound of their own block, whether it stands above or below them.
Key:
[1] = Therapeutically effective daily dose (oral / transdermal); assay type: in vivo; settings: estimated values
[2] = cited from earlier work
[3] = In vitro flux through pig skin in a Franz diffusion cell (saturated ethanolic solution or system of Example 1); settings: for skin permeation in vitro, alcoholic solution: saturated ethanolic solution
Method: The flux of progesterone and synthetic progestrone derivatives is measured in vitro as follows:
After 24 hours, an aliquot of the aqueous acceptor solution from the acceptor compartment is examined for content of the relevant progesterone derivative and, from this, the flux in μg cm^2 ×h is calculated.

[4] = vehicle of DE-A No. 3 205 258, e.g. ethanol gel; systems of acceptable size; cited from earlier work
endometrium carcinomas = settings: following treatment; numerous studies in the USA; cited from earlier work
[5] = cited from earlier work; remark: listed apart in the source

Structure (SMILES): C#C[C@]1(OC(C)=O)CC[C@H]2[C@@H]3CCC4=CC(=O)CC[C@@H]4[C@H]3CC[C@@]21C [norethisterone acetate, norethisterone-17-acetate]
- therapeutically effective daily dose, transdermal [1]: 2 mg
- therapeutically effective daily dose, oral [2]: 0.5 to 5 mg

Structure (SMILES): C#C[C@]1(O)CC[C@H]2[C@@H]3CCC4=CC(=O)CC[C@@H]4[C@H]3CC[C@@]21C [norethisterone]
- therapeutically effective daily dose, transdermal [1]: 0.2 mg
- therapeutically effective daily dose, oral [2]: 0.5 to 5 mg
- necessary surface area of system ([3]; estimated values): 350 cm^2
- skin permeation in vitro, alcoholic solution ([3]; pig skin, 24 hours): 0.024 μg/cm^2 · h

- skin permeation in vitro, alcoholic solution ([3]; pig skin, 24 hours): 0.028 μg/cm^2 · h
Structure (SMILES): C#C[C@]1(O)CC[C@H]2[C@@H]3CCC4=CC(=O)CC[C@@H]4[C@H]3CC[C@@]21CC [d-norgestrel]
- therapeutically effective daily dose, transdermal [1]: 0.05 mg
- therapeutically effective daily dose, oral [2]: 0.07 to 0.15 mg

Structure (SMILES): CC(=O)[C@H]1CC[C@H]2[C@@H]3CCC4=CC(=O)CC[C@]4(C)[C@H]3CC[C@]12C [progesterone]
- therapeutically effective daily dose, transdermal [1]: 2 mg
- therapeutically effective daily dose, oral [2]: 100 to 300 mg
- amount that passes through the skin for an adequate therapeutic effect [4]: not sufficient
- skin permeation in vitro, alcoholic solution ([3]; pig skin, 24 hours): 3.0 μg/cm^2 · h
- skin permeation in vitro, system according Example 1 ([3]; transdermal therapeutic system according to Example 1, pig skin, 24 hours): 0.073 μg/cm^2 · h

Structure (SMILES): CC(=O)O[C@]1(C(C)=O)CC[C@H]2[C@@H]3C[C@H](C)C4=CC(=O)CC[C@]4(C)[C@H]3CC[C@@]21C [medroxyprogesterone acetate]
- therapeutically effective daily dose, transdermal [1]: 2 mg
- therapeutically effective daily dose, oral [2]: 2.5 to 10 mg

Structure (SMILES): C[C@]12CC[C@@H]3c4ccc(O)cc4CC[C@H]3[C@@H]1CC[C@@H]2O [oestradiol, 17β-oestradiol]
- times higher incidence of endometrium carcinomas (endometrium carcinomas): 3.3 to 6 times
- resorption following oral administration [5]: unsatisfactory
- undesirable side-effects ([5]; oral, high dosage, frequent occurrence): nausea, thromboembolism
- metabolisation by the liver ([5]; oral): rapid

Structure (SMILES): CCCCC(=O)O[C@H]1CC[C@H]2[C@@H]3CCc4cc(O)ccc4[C@H]3CC[C@]12C [oestradiol valerate, estradiol-17-valerate]
- times higher incidence of endometrium carcinomas (endometrium carcinomas): 3.3 to 6 times
